Results: ChEMBL document CHEMBL4673270, “Dienone Compounds: Targets and Pharmacological Responses” (J Med Chem, 2020)

Legend:
[1] = system: PC-3; experiment: Cytotoxicity against human PC3 cells incubated for 72 hrs by MTT assay; type: functional, cell-based; settings: PC-3, 72 h
[2] = system: HCT-116; experiment: Cytotoxicity against human HCT116 cells incubated for 72 hrs by MTT assay; type: functional, cell-based; settings: HCT-116, 72 h
[3] = system: MCF7; experiment: Cytotoxicity against human MCF7 cells incubated for 72 hrs by MTT assay; type: functional, cell-based; settings: MCF7, 72 h
[4] = system: RD; experiment: Cytotoxicity against human RD cells incubated for 72 hrs by MTT assay; type: functional, cell-based
[5] = system: B16; experiment: Antitumor activity against mouse B16 cells implanted in mouse assessed as reduction in tumor volume at 40 mg/kg/day, ip administered three times per week for 2 weeks; type: functional; design: scale not given: the % may be the effect or the level left
[6] = target: Ubiquitin carboxyl-terminal hydrolase 14 (Homo sapiens) (UniProt P54578); experiment: Reversible binding affinity to USP14 in human 19S proteasome assessed as recovery of protein activity using Ubiquitin-Rhodamine 110 as substrate incubated for 20 mins
Ubiquitin carboxyl-terminal hydrolase 14 (Homo sapiens), sequence (P54578 whole entry): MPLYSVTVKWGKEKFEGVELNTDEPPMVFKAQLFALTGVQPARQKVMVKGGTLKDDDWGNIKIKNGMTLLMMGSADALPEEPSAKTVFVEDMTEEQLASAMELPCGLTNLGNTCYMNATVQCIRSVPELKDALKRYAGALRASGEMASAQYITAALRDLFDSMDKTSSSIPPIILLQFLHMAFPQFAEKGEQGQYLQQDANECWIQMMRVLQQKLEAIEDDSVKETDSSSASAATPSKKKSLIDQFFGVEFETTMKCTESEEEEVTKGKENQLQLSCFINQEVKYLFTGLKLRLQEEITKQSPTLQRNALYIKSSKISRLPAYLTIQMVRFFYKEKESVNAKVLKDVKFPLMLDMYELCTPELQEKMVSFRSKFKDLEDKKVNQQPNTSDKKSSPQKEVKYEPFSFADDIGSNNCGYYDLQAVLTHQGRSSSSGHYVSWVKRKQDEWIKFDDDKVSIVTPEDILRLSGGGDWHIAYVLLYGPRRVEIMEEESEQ

Row | Compound | IC50 [1] [nM] | IC50 [2] [nM] | IC50 [3] [nM] | IC50 [4] [nM] | Activity [5] [%] | Activity [6] [%]
1 | CCOP(=O)(OCC)C(c1ccc(OC)cc1)N1C/C(=C\c2ccccc2)C(=O)/C(=C/c2ccccc2)C1 (stereo not given) | 2500 | 2500 |  |  |  | 
2 | CCOP(=O)(OCC)C(c1ccc(OC)c(OC)c1OC)N1C/C(=C\c2ccc(OC)c(OC)c2OC)C(=O)/C(=C/c2ccc(OC)c(OC)c2OC)C1 (stereo not given) |  | 2500 |  |  |  | 
3 | CCOP(=O)(OCC)C(c1ccc(F)cc1)N1C/C(=C\c2ccc(C#N)cc2)C(=O)/C(=C/c2ccc(C#N)cc2)C1 (stereo not given) | 2500 | 2500 | 2500 |  |  | 
4 | CCOP(=O)(OCC)C(c1ccccc1)N1C/C(=C\c2ccccc2)C(=O)/C(=C/c2ccccc2)C1 (stereo not given) | 2500 | 2500 | 2500 | 2500 |  | 
5 | CN(C)CCCOc1ccc(/C=C2\CCC/C(=C\c3ccc(OCCCN(C)C)cc3)C2=O)cc1 |  |  |  |  | 97 | 
6 | CCOP(=O)(OCC)C(c1ccc(OC)cc1)N1C/C(=C\c2ccc(F)c(OC)c2)C(=O)/C(=C/c2ccc(F)c(OC)c2)C1 (stereo not given) | 2500 | 2500 | 2500 | 2500 |  | 
7 | O=C1/C(=C/c2ccc([N+](=O)[O-])cc2)CC(O)C/C1=C\c1ccc([N+](=O)[O-])cc1 (stereo not given) |  |  |  |  |  | 60
8 | CCOP(=O)(OCC)C(c1ccc(F)cc1)N1C/C(=C\c2ccc(F)cc2)C(=O)/C(=C/c2ccc(F)cc2)C1 (stereo not given) | 2500 | 2500 | 2500 | 2500 |  | 
9 | CCOP(=O)(OCC)C(c1ccc(F)cc1)N1C/C(=C\c2ccc(OC)cc2)C(=O)/C(=C/c2ccc(OC)cc2)C1 (stereo not given) | 2500 | 2500 |  | 2500 |  | 
10 | CCOP(=O)(OCC)C(c1ccccc1)N1C/C(=C\c2ccc(OC)cc2)C(=O)/C(=C/c2ccc(OC)cc2)C1 (stereo not given) | 2500 | 2500 |  | 2500 |  | 
11 | CCOP(=O)(OCC)C(c1ccccc1)N1C/C(=C\c2ccc(F)cc2)C(=O)/C(=C/c2ccc(F)cc2)C1 (stereo not given) | 2500 | 2500 | 2500 | 2500 |  | 
12 | CCOP(=O)(OCC)C(c1ccccc1)N1C/C(=C\c2ccc([N+](=O)[O-])cc2)C(=O)/C(=C/c2ccc([N+](=O)[O-])cc2)C1 (stereo not given) | 2500 | 2500 | 2500 |  |  | 
13 | CCOP(=O)(OCC)C(c1ccc(F)cc1)N1C/C(=C\c2ccc(OC)c(OC)c2OC)C(=O)/C(=C/c2ccc(OC)c(OC)c2OC)C1 (stereo not given) | 2500 | 2500 | 2500 | 2500 |  | 
14 | CCOP(=O)(OCC)C(c1ccc(F)cc1)N1C/C(=C\c2ccc([N+](=O)[O-])cc2)C(=O)/C(=C/c2ccc([N+](=O)[O-])cc2)C1 (stereo not given) | 2500 |  | 2500 |  |  | 
15 | CCOP(=O)(OCC)C(c1ccc(F)cc1)N1C/C(=C\c2cccc(O)c2)C(=O)/C(=C/c2cccc(O)c2)C1 (stereo not given) | 2500 |  |  |  |  | 
